Experiments:
[1] = molecular target: T1, Metallo-beta-lactamase type 2 (Klebsiella pneumoniae, UniProt C7C422); test: Binding affinity to His-tagged Klebsiella pneumoniae NDM-1 expressed in Escherichia coli BL21-AI cells by surface plasmon resonance assay
[2] = molecular target: T1, Metallo-beta-lactamase type 2; test: Inhibition of His-tagged Klebsiella pneumoniae NDM-1 expressed in Escherichia coli BL21-AI cells using imipinem as substrate
[3] = molecular target: Metallo-beta-lactamase type 2 (Klebsiella pneumoniae) (UniProt C7C422); test: Inhibition of His-tagged Klebsiella pneumoniae NDM-1 expressed in Escherichia coli BL21-AI cells at 500 uM using imipinem as substrate
Metallo-beta-lactamase type 2 (Klebsiella pneumoniae), sequence (C7C422 whole entry): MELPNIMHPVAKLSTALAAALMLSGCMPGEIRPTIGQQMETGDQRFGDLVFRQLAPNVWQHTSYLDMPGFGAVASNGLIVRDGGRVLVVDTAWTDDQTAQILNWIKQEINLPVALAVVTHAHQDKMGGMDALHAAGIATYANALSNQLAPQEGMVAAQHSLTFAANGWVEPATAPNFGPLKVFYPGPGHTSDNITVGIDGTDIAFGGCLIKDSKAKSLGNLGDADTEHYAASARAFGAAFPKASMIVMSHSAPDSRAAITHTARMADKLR

[4] = molecular target: Metallo-beta-lactamase type 2 (Klebsiella pneumoniae) (UniProt C7C422); test: Ratio of IC50 for inhibition of His-tagged Klebsiella pneumoniae NDM-1 expressed in Escherichia coli BL21-AI cells using imipinem as substrate to Kd for Binding affinity to His-tagged Klebsiella pneumoniae NDM-1 expressed in Escherichia coli BL21-AI cells by surface plasmon resonance assay
[5] = molecular target: T1, Metallo-beta-lactamase type 2; test: Competitive inhibition of His-tagged Klebsiella pneumoniae NDM-1 expressed in Escherichia coli BL21-AI cells using imipinem as substrate

T1 sequence (C7C422 whole entry): as above

SMILES | Kd [1] | IC50 ([2]; read-out: IC50) | inhibition [3] | Ratio [4] | IC50 ([2]; read-out: pIC50 (converted)) | Ki [5]
C[C@@H](O)[C@H]1C(=O)N2C(C(=O)O)=C(S[C@@H]3CN[C@H](C(=O)N(C)C)C3)[C@H](C)[C@H]12 [MEROPENEM] | 11 µM | – | – | – | – | –
O=C(O)CCCc1c[nH]c2ccccc12 | 806 µM | 1950 µM | > 20% | 1.5 | – | –
O=C(O)CSc1ccnc2cc(Cl)ccc12 | 804 µM | 1240 µM | > 20% | 1.5 | 1070 µM | –
CCCc1ccc(C(=O)CCC(=O)O)cc1 | 2100 µM | 3110 µM | > 20% | 1.5 | – | –
N#Cc1coc2ccccc2c1=O | 181 µM | 480 µM | > 20% | 1.5 | – | 186 µM

From ChEMBL document CHEMBL3785049, “Fragment-based discovery of inhibitor scaffolds targeting the metallo-β-lactamases NDM-1 and VIM-2” (Bioorg Med Chem Lett, 2016)
